According to US9205070B2, “Chelation suppository for improved drug delivery” (APPLIED BIORESEARCH, INC., priority 2013, dated 2015):
Where two headings read alike, the source gives them in different places.

Legend:
[1] = rat
Source text: The conclusive measure of bioavailability is to measure the drug blood levels (or levels in some other body fluid) after administration to human test subjects.
See Rabau M Y, Baratz M, Rozen P, “Na2 ethylenediaminetetraacetic acid retention enema in dogs. Biochemical and histological response”.

[2] = aqueous composition containing MBK, pH 7.0 and pH 9.6, after 5 hours
Procedure: Cells in the digestive track, such as CACO-2 cells are typically used to model absorption in the small intestine. CACO-2 cells, developed by the Sloan-Kettering Institute from human epithelial colorectal adenocarcinoma cells, are widely used to predict drug absorption. […] permeability assay (PAMPA) uses an artificial cell membrane to model drug permeability. In either test, the drug is dissolved in an aqueous solution mimicking the target gastric fluid. The fluid is contacted with the membrane, and the passage of the drug through the membrane over a period of time is used to assess permeability.
PAMPA measures how quickly the drug can exit a water-solvated environment and pass through a cell membrane. Since most drugs are hydrophobic, it is expected that there will be significant absorption by the cells lining the digestive tract.

[3] = dogs, aqueous solution, rectal; cited from earlier work
[4] = Group C, rectal suppository with MBK excipient, mean

| Compound | AUC ([1]; Group B, intravenous, mean) [ng·h/mL] | AUC Inf ([1]; Group B, intravenous, mean) [ng·h/mL] | Cmax ([1]; Group B, intravenous, mean) [ng/mL] | Halflife ([1]; Group B, intravenous, mean) [min] | Tmax ([1]; Group B, intravenous, mean) [min] | AUC [1, 4] [ng·h/mL] | AUC Inf [1, 4] [ng·h/mL] | Cmax [1, 4] [ng/mL] | drug absorbed ([1]; suppository with MBK as the excipient, within eight hours) | passage of drug through the artificial cell membrane [2] | absorption [3] [%] |
| --- | --- | --- | --- | --- | --- | --- | --- | --- | --- | --- | --- |
| O=C([O-])CN(CCN(CC(=O)[O-])CC(=O)[O-])CC(=O)[O-].[Ca+2].[Na+].[Na+] [CaNa2EDTA, calcium disodium ethylenediaminetetraacetate] | 1860 | 1910 | 2070 | 90 | 4.98 | 105800 | 307300 | 30600 | over 36.3% | no drug was found to have passed through the artificial cell membrane | – |
| O=C(O)CN(CCN(CC(=O)O)CC(=O)O)CC(=O)O [EDTA] | – | – | – | – | – | – | – | – | – | – | ~13 |
